In ChEMBL document CHEMBL5608215, “Development of amphipathic derivatives of thymol and carvacrol as potent broad-spectrum antibacterial agents” (Eur J Med Chem, 2024):
Active and inactive are the calls of the source. The rule behind the calls is not given here.

Experiments:
[1] = test system: Staphylococcus aureus; assay: Antibacterial activity against Staphylococcus aureus ATCC29213 in plasma pretreated plasma with compound for 6 hrs followed by bacterial infection into plasma; assay type: functional, organism-based
[2] = Toxicity in KM mouse assessed as histopathological abnormality in liver upto 40 mg/kg, ip measured for 24 hrs by H and E staining based analysis; assay type: organism-based; settings: in vivo
[3] = Toxicity in KM mouse assessed as histopathological abnormality in heart upto 40 mg/kg, ip measured for 24 hrs by H and E staining based analysis; assay type: organism-based; settings: in vivo
[4] = test system: Staphylococcus aureus; assay: Antibacterial activity against Staphylococcus aureus ATCC29213 by CLSI based serial dilution method; assay type: functional
[5] = test system: Staphylococcus aureus; assay: Antibacterial activity against methicillin-resistant Staphylococcus aureus 21-5 by CLSI based serial dilution method; assay type: functional
[6] = test system: Enterococcus; assay: Antibacterial activity against vancomycin-resistant Enterococcus ATCC51299 by CLSI based serial dilution method; assay type: functional
[7] = test system: Escherichia coli; assay: Antibacterial activity against Escherichia coli ATCC25922 by CLSI based serial dilution method; assay type: functional
[8] = test system: Pseudomonas aeruginosa; assay: Antibacterial activity against Pseudomonas aeruginosa ATCC27853 by CLSI based serial dilution method; assay type: functional
[9] = test system: Staphylococcus aureus; assay: Inhibition of antibiotic-resistance in Staphylococcus aureus ATCC29213 at 0.5 times of MIC incubated for 20 days; assay type: functional; settings: time 20.0 day
[10] = test system: Staphylococcus aureus; assay: Bactericidal activity against Staphylococcus aureus ATCC29213 incubated upto 24 hrs by time-kill assay; assay type: functional, organism-based
[11] = test system: Escherichia coli; assay: Bactericidal activity against Escherichia coli ATCC25922 incubated upto 24 hrs by time-kill assay; assay type: functional, organism-based
[12] = test system: Staphylococcus aureus; assay: Bactericidal activity against Staphylococcus aureus ATCC29213 assessed as log reduction in bacterial growth at 8 times MIC incubated for 24 hrs by time-kill assay; assay type: functional
[13] = test system: Escherichia coli; assay: Bactericidal activity against Escherichia coli ATCC25922 at 8 times MIC incubated for 12 hrs by time-kill assay relative to control; assay type: functional
[14] = test system: Escherichia coli; assay: Bactericidal activity against Escherichia coli ATCC25922 assessed as inhibition of bacterial regrowth at 8 times MIC incubated for 24 hrs by time-kill assay; assay type: functional, organism-based
[15] = test system: Escherichia coli; assay: Bactericidal activity against Escherichia coli ATCC25922 at MIC incubated for 12 hrs by time-kill assay relative to control; assay type: functional
[16] = test system: Escherichia coli; assay: Bactericidal activity against Escherichia coli ATCC25922 at MIC incubated for 24 hrs by time-kill assay relative to control; assay type: functional
[17] = test system: Staphylococcus aureus; assay: Antibacterial activity against Staphylococcus aureus ATCC29213 assessed as cell surface wrinkling at 8 times MIC by SEM analysis; assay type: functional, organism-based
[18] = test system: Staphylococcus aureus; assay: Antibacterial activity against Staphylococcus aureus ATCC29213 assessed as cell surface disruption at 8 times MIC by SEM analysis; assay type: functional, organism-based
[19] = test system: Enterococcus faecalis; assay: Antibacterial activity against Enterococcus faecalis ATCC29212 assessed as cell surface wrinkling at 8 times MIC by SEM analysis; assay type: functional, organism-based
[20] = test system: Enterococcus faecalis; assay: Antibacterial activity against Enterococcus faecalis ATCC29212 assessed as cell surface disruption at 8 times MIC by SEM analysis; assay type: functional, organism-based
[21] = test system: Enterococcus faecalis; assay: Antibacterial activity against Enterococcus faecalis ATCC29212 assessed as leakage of cell contents at 8 times MIC by SEM analysis; assay type: functional, organism-based
[22] = test system: Staphylococcus aureus; assay: Antibacterial activity against Staphylococcus aureus ATCC29213 assessed as cell membrane damage incubated for 8 mins by SYTOX Green uptake assay; assay type: functional, organism-based
[23] = test system: Escherichia coli; assay: Antibacterial activity against Escherichia coli ATCC25922 assessed as cell membrane damage incubated for 8 mins by SYTOX Green uptake assay; assay type: functional, organism-based
[24] = test system: Staphylococcus aureus; assay: Antibacterial activity against Staphylococcus aureus ATCC29213 assessed as cell membrane damage at 8 times MIC by NucGreen/EthD-III staining based analysis; assay type: functional, organism-based
[25] = test system: Staphylococcus aureus; assay: Antibacterial activity against Staphylococcus aureus ATCC25923 upto 32 ug/ml incubated for 16 to 18 hrs in presence of cardiolipin; assay type: functional, organism-based; settings: dose <= 32.0 µg/ml, time 16-18 hrs
[26] = test system: Staphylococcus aureus; assay: Antibacterial activity against Staphylococcus aureus ATCC25923 upto 32 ug/ml incubated for 16 to 18 hrs in presence of phosphatidylethanolamine; assay type: functional, organism-based; settings: dose <= 32.0 µg/ml, time 16-18 hrs
[27] = test system: Staphylococcus aureus; assay: Antibacterial activity against Staphylococcus aureus ATCC25923 upto 32 ug/ml incubated for 16 to 18 hrs in presence of peptidoglycan; assay type: functional, organism-based; settings: dose <= 32.0 µg/ml, time 16-18 hrs
[28] = Cytotoxicity against HUVEC cells assessed as cell viability at 32 ug/ml incubated for 24 hrs by CCK8 assay relative to control; assay type: toxicity, cell-based; settings: human, at 32 µg/mL, read-out: Activity
[29] = Selectivity ratio of cytotoxicity against HUVEC cells for to MIC for Staphylococcus aureus ATCC29213; assay type: toxicity, cell-based; settings: human
[30] = Hemolytic activity against rabbit RBC incubated for 1 hr by absorbance based assay; assay type: toxicity, cell-based, Oryctolagus cuniculus, Erythrocyte; settings: rabbit red blood cells (erythrocytes)
[31] = test system: Escherichia coli; assay: Antibacterial activity against Escherichia coli ATCC25922 in plasma pretreated plasma with compound for 6 hrs followed by bacterial infection into plasma; assay type: functional, organism-based
[32] = Toxicity in KM mouse assessed as animal survival upto 40 mg/kg, ip measured for 24 hrs; assay type: organism-based; settings: in vivo
[33] = Toxicity in KM mouse assessed as normal condition upto 40 mg/kg, ip measured for 24 hrs; assay type: organism-based; settings: in vivo
[34] = Toxicity in KM mouse assessed as histopathological abnormality in spleen upto 40 mg/kg, ip measured for 24 hrs by H and E staining based analysis; assay type: organism-based; settings: in vivo
[35] = Toxicity in KM mouse assessed as histopathological abnormality in lung upto 40 mg/kg, ip measured for 24 hrs by H and E staining based analysis; assay type: organism-based; settings: in vivo
[36] = Toxicity in KM mouse assessed as histopathological abnormality in kidney upto 40 mg/kg, ip measured for 24 hrs by H and E staining based analysis; assay type: organism-based; settings: in vivo
[37] = Toxicity in KM mouse assessed as damage in liver upto 40 mg/kg, ip measured for 24 hrs by H and E staining based analysis; assay type: organism-based; settings: in vivo
[38] = Toxicity in KM mouse assessed as damage in spleen upto 40 mg/kg, ip measured for 24 hrs by H and E staining based analysis; assay type: organism-based; settings: in vivo
[39] = Toxicity in KM mouse assessed as damage in kidney upto 40 mg/kg, ip measured for 24 hrs by H and E staining based analysis; assay type: organism-based; settings: in vivo
[40] = test system: Staphylococcus aureus; assay: Antibacterial activity against Staphylococcus aureus ATCC29213 infected in mouse model assessed as reduction in abscesses size at 5 to 10 mg/kg, sc measured after 24 hrs; assay type: functional, organism-based; settings: dose 5-10 mg/kg
[41] = test system: Staphylococcus aureus; assay: Antibacterial activity against Staphylococcus aureus ATCC29213 infected in mouse model assessed as normalization of skin cell morphology at 5 to 10 mg/kg, sc measured after 24 hrs by H and E staining based analysis; assay type: functional, organism-based; settings: dose 5-10 mg/kg
[42] = test system: Staphylococcus aureus; assay: Antibacterial activity against Staphylococcus aureus ATCC29213 infected in mouse model assessed as bacterial concentration at 5 mg/kg, sc measured after 24 hrs (reference value: 10^10.13 CFU/g); assay type: functional
[43] = test system: Staphylococcus aureus; assay: Antibacterial activity against Staphylococcus aureus ATCC29213 infected in mouse model assessed as bacterial concentration at 10 mg/kg, sc measured after 24 hrs (reference value: 10^10.13 CFU/g); assay type: functional
[44] = test system: Staphylococcus aureus; assay: Antibacterial activity against Staphylococcus aureus ATCC29213 infected in mouse model assessed as bacterial load in abscesses at 10 mg/kg, sc measured after 24 hrs; assay type: functional

CCCCCCCNC(=O)C[N+](C)(C)CCCCOc1cc(C)ccc1C(C)C.[Br-]
Activity [1]: Active | Activity [2]: Non-Toxic | Activity [3]: Non-Toxic | MIC [4]: 0.5 µg/mL | MIC [5]: 4 µg/mL | MIC [6]: 2 µg/mL | MIC [7]: 2 µg/mL | MIC [8]: 8 µg/mL | inhibition [9]: Active | Activity [10]: Dose-Dependent Effect | Activity [11]: Dose-Dependent Effect | Activity [12]: >3 log10CFU/ml | Activity [13]: 100% | inhibition [14]: Active | Activity [15]: 99.99% | Activity [16]: 100% | Activity [17]: Active | Activity [18]: Active | Activity [19]: Active | Activity [20]: Active | Activity [21]: Active | Activity [22]: Dose-Dependent Effect | Activity [23]: Dose-Dependent Effect | Activity [24]: Active | Activity [25]: inactive | Activity [26]: inactive | Activity [27]: Active | viability at 24 h, 32 ug/ml [28]: 68.7% | selectivity ratio [29]: 64 | HC50 at 1 h [30]: 472 µg/mL | Activity [31]: Active | Activity [32]: Non-Toxic | Activity [33]: Non-Toxic | Activity [34]: Non-Toxic | Activity [35]: Non-Toxic | Activity [36]: Non-Toxic | Activity [37]: Non-Toxic | Activity [38]: Non-Toxic | Activity [39]: Non-Toxic | Activity [40]: Active | Activity [41]: Active | Activity [42]: ~1 10^7.99CFU/g | Activity [43]: ~1 10^7.67CFU/g | Activity [44]: 2.46 log10CFU/g
